According to US10765114B2, “4-amino-6-(pyridyl and 2-substitutedphenyl)-picolinates and 6-amino-2-(pyridyl and 2-substitutedphenyl)-pyrimidine-4-carboxylates and their use as herbicides” (Dow AgroSciences LLC, priority 2013, dated 2020):

Each molecule was assayed on SEBEX: hemp sesbania, Sesbania exaltata (assay: Postemergence Herbicidal Activity in Direct Seeded Rice). Settings: 35 g ai/ha, postemergence, direct seeded rice.
Type: in vivo
Source text: (§1) Seeds or nutlets of the desired test plant species were planted in a soil matrix prepared by mixing a loam soil (43 percent silt, 19 percent clay, and 38 percent sand, with a pH of about 8.1 and an organic matter content of about 1.5 percent) and river sand in an 80 to 20 ratio. The soil matrix was contained in plastic pots with a surface area of 139.7 cm^2. When required to ensure good germination and healthy plants, a fungicide treatment and/or other chemical or physical treatment was applied. The plants were grown for 10-17 days in a greenhouse with an approximate 14-h photoperiod which was maintained at about 29° C. during the day and 26° C. during the night. Nutrients and water were added on a regular basis and supplemental lighting was provided with overhead metal halide 1000-Watt lamps as necessary. The plants were employed for testing when they reached the second or third true leaf stage.
(§2) A weighed amount, determined by the highest rate to be tested, of each test compound was placed in 25 mL glass vials and dissolved in a volume of 97:3 v/v acetone-DMSO to obtain 12× stock solutions. […] The concentrated stock solutions were added to the spray solutions so that the final acetone and DMSO concentrations were 16.2% and 0.5%, respectively. Spray solutions were diluted to the appropriate final concentrations with the addition of 10 mL of an aqueous mixture of 1.5% (v/v) Agri-dex crop oil concentrate. The final spray solutions contained 1.25% (v/v) Agri-dex crop oil concentrate. Compound requirements are based upon a 12 mL application volume at a rate of 187 L/ha. Formulated compounds were applied to the plant material with an overhead Mandel track sprayer equipped with 8002E nozzles calibrated to deliver 187 L/ha over an application area of 0.503 square meters (m^2) at a spray height of 18 inches (43 cm) above average plant canopy height. Control plants were sprayed in the same manner with the solvent blank.
(§3) The treated plants and control plants were placed in a greenhouse as described above and watered by sub-irrigation to prevent wash-off of the test compounds. After 20-22 days, the condition of the test plants, compared with that of the untreated plants, was determined visually and scored on a scale of 0 to 100 percent where 0 corresponds to no injury and 100 corresponds to complete kill and presented as indicated in Table A.
(§4) By applying the well-accepted probit analysis as described by J. Berkson in Journal of the American Statistical Society, 48, 565 (1953) and by D. Finney in “Probit Analysis” Cambridge University Press (1952), herbicidal injury of a specific compound at various rates can be used to calculate GR20, GR50, GR80 and GR90 values, which are defined as growth reduction factors that correspond to the effective dose of herbicide required to provide plant growth reduction (GR) of 20 percent, 50 percent, 80 percent and 90 percent, respectively. Probit analysis was applied to data collected from multiple dose rates of individual compounds utilizing the procedures explained in the following examples. The analysis of those dose rates is captured in the following tables
With COC(=O)c1nc(-c2ccc(C(F)(F)F)nc2)c(F)c(N)c1Cl [Compound 59, methyl 4-amino-5-chloro-3-fluoro-6′-(trifluoromethyl)-[2,3′-bipyridine]-6-carboxylate] the “Visual Growth Reduction (%) 21 Days After Application, SEBEX” value was “A (95-100)”.

Same assay, conditions: 70 g ai/ha, postemergence, direct seeded rice
In the case of COC(=O)c1nc(-c2ccc(C(F)(F)F)nc2)c(F)c(N)c1Cl [Compound 59, methyl 4-amino-5-chloro-3-fluoro-6′-(trifluoromethyl)-[2,3′-bipyridine]-6-carboxylate], the “Visual Growth Reduction (%) 21 Days After Application, SEBEX” value is reported as “A (95-100)”.

Same assay, conditions: Growth reduction of 50% of plant growth, probit analysis
In the case of COC(=O)c1nc(-c2ccc(C(F)(F)F)nc2)c(F)c(N)c1Cl [Compound 59, methyl 4-amino-5-chloro-3-fluoro-6′-(trifluoromethyl)-[2,3′-bipyridine]-6-carboxylate], the “GR50, SEBEX” value is reported as 1 g ai/ha.

Same assay, conditions: Growth reduction of 80% of plant growth, probit analysis
COC(=O)c1nc(-c2ccc(C(F)(F)F)nc2)c(F)c(N)c1Cl [Compound 59, methyl 4-amino-5-chloro-3-fluoro-6′-(trifluoromethyl)-[2,3′-bipyridine]-6-carboxylate] was tested, and the “GR80, SEBEX” value was 1 g ai/ha.

These molecules were tested on SCPJU: Japanese bulrush, Schoenoplectus juncoides in the same assay as above. Settings: 35 g ai/ha, postemergence, direct seeded rice.
Type: in vivo
Source text: as §1, §2, §3, §4
For COC(=O)c1nc(-c2ccc(C(F)(F)F)nc2)c(F)c(N)c1Cl [Compound 59, methyl 4-amino-5-chloro-3-fluoro-6′-(trifluoromethyl)-[2,3′-bipyridine]-6-carboxylate], the “Visual Growth Reduction (%) 21 Days After Application, SCPJU” value was “A (95-100)”.

Same assay, conditions: 70 g ai/ha, postemergence, direct seeded rice
With COC(=O)c1nc(-c2ccc(C(F)(F)F)nc2)c(F)c(N)c1Cl [Compound 59, methyl 4-amino-5-chloro-3-fluoro-6′-(trifluoromethyl)-[2,3′-bipyridine]-6-carboxylate] the “Visual Growth Reduction (%) 21 Days After Application, SCPJU” value was “A (95-100)”.

Same assay, conditions: Growth reduction of 50% of plant growth, probit analysis
COC(=O)c1nc(-c2ccc(C(F)(F)F)nc2)c(F)c(N)c1Cl [Compound 59, methyl 4-amino-5-chloro-3-fluoro-6′-(trifluoromethyl)-[2,3′-bipyridine]-6-carboxylate] was tested, and the “GR50, SCPJU” value was <17.5 g ai/ha.

Same assay, conditions: Growth reduction of 80% of plant growth, probit analysis
COC(=O)c1nc(-c2ccc(C(F)(F)F)nc2)c(F)c(N)c1Cl [Compound 59, methyl 4-amino-5-chloro-3-fluoro-6′-(trifluoromethyl)-[2,3′-bipyridine]-6-carboxylate] was tested, and the “GR80, SCPJU” value was <17.5 g ai/ha.

What follows are molecules tested on BRAPP: broadleaf signalgrass, Brachiaria platyphylla in the same assay as above. Settings: 35 g ai/ha, postemergence, direct seeded rice.
Type: in vivo
Source text: as §1, §2, §3, §4
COC(=O)c1nc(-c2ccc(C(F)(F)F)nc2)c(F)c(N)c1Cl [Compound 59, methyl 4-amino-5-chloro-3-fluoro-6′-(trifluoromethyl)-[2,3′-bipyridine]-6-carboxylate] was tested, and the “Visual Growth Reduction (%) 21 Days After Application, BRAPP” value was “B (85-94)”.

Same assay, conditions: 70 g ai/ha, postemergence, direct seeded rice
In the case of COC(=O)c1nc(-c2ccc(C(F)(F)F)nc2)c(F)c(N)c1Cl [Compound 59, methyl 4-amino-5-chloro-3-fluoro-6′-(trifluoromethyl)-[2,3′-bipyridine]-6-carboxylate], the “Visual Growth Reduction (%) 21 Days After Application, BRAPP” value is reported as “B (85-94)”.

Same assay, conditions: Growth reduction of 50% of plant growth, probit analysis
COC(=O)c1nc(-c2ccc(C(F)(F)F)nc2)c(F)c(N)c1Cl [Compound 59, methyl 4-amino-5-chloro-3-fluoro-6′-(trifluoromethyl)-[2,3′-bipyridine]-6-carboxylate] was tested, and the “GR50, BRAPP” value was 3 g ai/ha.

Same assay, conditions: Growth reduction of 80% of plant growth, probit analysis
With COC(=O)c1nc(-c2ccc(C(F)(F)F)nc2)c(F)c(N)c1Cl [Compound 59, methyl 4-amino-5-chloro-3-fluoro-6′-(trifluoromethyl)-[2,3′-bipyridine]-6-carboxylate] the “GR80, BRAPP” value was 16 g ai/ha.

These molecules were tested on CYPSS: sedge including small-flower flatsedge (Cyperus difformis), yellow nutsedge (Cyperus esculentus), rice flatsedge (Cyperus iria) in the same assay as above. Settings: 35 g ai/ha, postemergence, direct seeded rice.
Type: in vivo
Source text: as §1, §2, §3, §4
With COC(=O)c1nc(-c2ccc(C(F)(F)F)nc2)c(F)c(N)c1Cl [Compound 59, methyl 4-amino-5-chloro-3-fluoro-6′-(trifluoromethyl)-[2,3′-bipyridine]-6-carboxylate] the “Visual Growth Reduction (%) 21 Days After Application, CYPSS” value was “A (95-100)”.

Same assay, conditions: 70 g ai/ha, postemergence, direct seeded rice
In the case of COC(=O)c1nc(-c2ccc(C(F)(F)F)nc2)c(F)c(N)c1Cl [Compound 59, methyl 4-amino-5-chloro-3-fluoro-6′-(trifluoromethyl)-[2,3′-bipyridine]-6-carboxylate], the “Visual Growth Reduction (%) 21 Days After Application, CYPSS” value is reported as “A (95-100)”.

Same assay, conditions: Growth reduction of 50% of plant growth, probit analysis
In the case of COC(=O)c1nc(-c2ccc(C(F)(F)F)nc2)c(F)c(N)c1Cl [Compound 59, methyl 4-amino-5-chloro-3-fluoro-6′-(trifluoromethyl)-[2,3′-bipyridine]-6-carboxylate], the “GR50, CYPSS” value is reported as 2 g ai/ha.

Same assay, conditions: Growth reduction of 80% of plant growth, probit analysis
COC(=O)c1nc(-c2ccc(C(F)(F)F)nc2)c(F)c(N)c1Cl [Compound 59, methyl 4-amino-5-chloro-3-fluoro-6′-(trifluoromethyl)-[2,3′-bipyridine]-6-carboxylate] was tested, and the “GR80, CYPSS” value was 3 g ai/ha.

What follows are molecules tested on ORYSS: Oryza sativa in the same assay as above. Settings: 35 g ai/ha, postemergence, direct seeded rice.
Type: in vivo
Source text: as §1, §2, §3, §4
COC(=O)c1nc(-c2ccc(C(F)(F)F)nc2)c(F)c(N)c1Cl [Compound 59, methyl 4-amino-5-chloro-3-fluoro-6′-(trifluoromethyl)-[2,3′-bipyridine]-6-carboxylate] was tested, and the “Visual Growth Reduction (%) 21 Days After Application, ORYSS” value was “E (45-59)”.

Same assay, conditions: 70 g ai/ha, postemergence, direct seeded rice
With COC(=O)c1nc(-c2ccc(C(F)(F)F)nc2)c(F)c(N)c1Cl [Compound 59, methyl 4-amino-5-chloro-3-fluoro-6′-(trifluoromethyl)-[2,3′-bipyridine]-6-carboxylate] the “Visual Growth Reduction (%) 21 Days After Application, ORYSS” value was “E (45-59)”.

Same assay, conditions: Growth reduction of 20% of plant growth, probit analysis
For COC(=O)c1nc(-c2ccc(C(F)(F)F)nc2)c(F)c(N)c1Cl [Compound 59, methyl 4-amino-5-chloro-3-fluoro-6′-(trifluoromethyl)-[2,3′-bipyridine]-6-carboxylate], the “GR20, ORYSS” value was 18 g ai/ha.

The molecules below were run on ECHSS: including barnyardgrass, (Echinochloa crus-galli), junglerice, (Echinochloa colonum) in the same assay as above. Settings: 35 g ai/ha, postemergence, direct seeded rice.
Type: in vivo
Source text: as §1, §2, §3, §4
For COC(=O)c1nc(-c2ccc(C(F)(F)F)nc2)c(F)c(N)c1Cl [Compound 59, methyl 4-amino-5-chloro-3-fluoro-6′-(trifluoromethyl)-[2,3′-bipyridine]-6-carboxylate], the “Visual Growth Reduction (%) 21 Days After Application, ECHSS” value was “B (85-94)”.

Same assay, conditions: 70 g ai/ha, postemergence, direct seeded rice
For COC(=O)c1nc(-c2ccc(C(F)(F)F)nc2)c(F)c(N)c1Cl [Compound 59, methyl 4-amino-5-chloro-3-fluoro-6′-(trifluoromethyl)-[2,3′-bipyridine]-6-carboxylate], the “Visual Growth Reduction (%) 21 Days After Application, ECHSS” value was “B (85-94)”.

Same assay, conditions: Growth reduction of 50% of plant growth, probit analysis
In the case of COC(=O)c1nc(-c2ccc(C(F)(F)F)nc2)c(F)c(N)c1Cl [Compound 59, methyl 4-amino-5-chloro-3-fluoro-6′-(trifluoromethyl)-[2,3′-bipyridine]-6-carboxylate], the “GR50, ECHSS” value is reported as 3 g ai/ha.

Same assay, conditions: Growth reduction of 80% of plant growth, probit analysis
In the case of COC(=O)c1nc(-c2ccc(C(F)(F)F)nc2)c(F)c(N)c1Cl [Compound 59, methyl 4-amino-5-chloro-3-fluoro-6′-(trifluoromethyl)-[2,3′-bipyridine]-6-carboxylate], the “GR80, ECHSS” value is reported as 15 g ai/ha.

Each molecule was assayed on LEFSS: sprangletop including Chinese sprangletop (Leptochloa chinensis), green sprangletop (Leptochloa dubia) in the same assay as above. Settings: 35 g ai/ha, postemergence, direct seeded rice.
Type: in vivo
Source text: as §1, §2, §3, §4
For COC(=O)c1nc(-c2ccc(C(F)(F)F)nc2)c(F)c(N)c1Cl [Compound 59, methyl 4-amino-5-chloro-3-fluoro-6′-(trifluoromethyl)-[2,3′-bipyridine]-6-carboxylate], the “Visual Growth Reduction (%) 21 Days After Application, LEFSS” value was “D (60-74)”.

Same assay, conditions: 70 g ai/ha, postemergence, direct seeded rice
With COC(=O)c1nc(-c2ccc(C(F)(F)F)nc2)c(F)c(N)c1Cl [Compound 59, methyl 4-amino-5-chloro-3-fluoro-6′-(trifluoromethyl)-[2,3′-bipyridine]-6-carboxylate] the “Visual Growth Reduction (%) 21 Days After Application, LEFSS” value was “B (85-94)”.

Same assay, conditions: Growth reduction of 50% of plant growth, probit analysis
COC(=O)c1nc(-c2ccc(C(F)(F)F)nc2)c(F)c(N)c1Cl [Compound 59, methyl 4-amino-5-chloro-3-fluoro-6′-(trifluoromethyl)-[2,3′-bipyridine]-6-carboxylate] was tested, and the “GR50, LEFSS” value was 27 g ai/ha.

Same assay, conditions: Growth reduction of 80% of plant growth, probit analysis
For COC(=O)c1nc(-c2ccc(C(F)(F)F)nc2)c(F)c(N)c1Cl [Compound 59, methyl 4-amino-5-chloro-3-fluoro-6′-(trifluoromethyl)-[2,3′-bipyridine]-6-carboxylate], the “GR80, LEFSS” value was 48 g ai/ha.
